Here are results for 2 molecules from PMC3063124 (The Journal of neuroscience : the official journal of the …, 2011).

Where two headings read alike, the source gives them in different places.

The target in experiment [1] is GluN1/GluN2D (Rattus norvegicus, UniProt P35439+Q62645). Particulars: read-out: EC50 of agonist.
Experiment [2] deals with GluN1/GluN2D (Rattus norvegicus, UniProt Q62645). In kind it is cell-based. The note with it: absence of QNZ46; continuous presence of glycine.

Usually EC50 stands for the concentration needed to bring the measured effect to its halfway point.

Chain of GluN1/GluN2D (Rattus norvegicus, UniProt Q62645) (Q62645 28-1323, other chains not shown): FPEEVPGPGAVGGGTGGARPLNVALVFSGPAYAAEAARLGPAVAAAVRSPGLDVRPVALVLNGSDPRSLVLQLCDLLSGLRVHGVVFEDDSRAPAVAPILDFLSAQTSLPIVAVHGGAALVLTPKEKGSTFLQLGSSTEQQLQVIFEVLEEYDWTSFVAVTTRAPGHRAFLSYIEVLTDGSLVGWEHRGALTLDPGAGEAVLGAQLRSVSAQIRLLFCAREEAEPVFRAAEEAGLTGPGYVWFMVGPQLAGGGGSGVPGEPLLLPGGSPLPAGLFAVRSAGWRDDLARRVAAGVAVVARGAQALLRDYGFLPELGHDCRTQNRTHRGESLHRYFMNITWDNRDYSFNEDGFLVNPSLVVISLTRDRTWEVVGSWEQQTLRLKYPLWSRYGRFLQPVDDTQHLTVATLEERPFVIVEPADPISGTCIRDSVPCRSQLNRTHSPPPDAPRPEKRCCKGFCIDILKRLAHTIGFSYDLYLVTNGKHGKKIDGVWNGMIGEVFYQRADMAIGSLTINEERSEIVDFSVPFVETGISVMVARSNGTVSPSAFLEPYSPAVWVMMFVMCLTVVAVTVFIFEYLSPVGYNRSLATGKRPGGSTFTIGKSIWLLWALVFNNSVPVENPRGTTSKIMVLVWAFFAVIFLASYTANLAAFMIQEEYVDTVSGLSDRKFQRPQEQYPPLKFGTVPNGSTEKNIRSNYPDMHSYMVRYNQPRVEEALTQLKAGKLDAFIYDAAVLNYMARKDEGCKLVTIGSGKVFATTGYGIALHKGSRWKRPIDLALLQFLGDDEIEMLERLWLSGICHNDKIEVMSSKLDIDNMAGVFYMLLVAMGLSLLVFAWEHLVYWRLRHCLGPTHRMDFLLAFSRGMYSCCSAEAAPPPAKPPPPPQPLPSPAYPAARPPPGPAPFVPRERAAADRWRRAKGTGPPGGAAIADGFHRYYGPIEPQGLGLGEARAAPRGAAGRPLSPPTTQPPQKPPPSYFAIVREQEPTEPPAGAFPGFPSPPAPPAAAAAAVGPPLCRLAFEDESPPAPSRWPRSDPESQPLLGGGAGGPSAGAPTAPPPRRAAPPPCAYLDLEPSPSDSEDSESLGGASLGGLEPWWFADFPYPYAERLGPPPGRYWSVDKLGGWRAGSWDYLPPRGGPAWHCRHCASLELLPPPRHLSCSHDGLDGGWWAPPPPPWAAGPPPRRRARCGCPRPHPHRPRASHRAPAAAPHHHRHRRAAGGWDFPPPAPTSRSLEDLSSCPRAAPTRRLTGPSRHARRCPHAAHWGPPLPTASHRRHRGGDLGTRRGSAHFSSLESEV
Chain of GluN1/GluN2D (Rattus norvegicus, UniProt P35439+Q62645) (Q62645 28-1323, other chains not shown): as above

For `N[C@@H](CCC(=O)O)C(=O)O` [glutamate], the EC50 on GluN1/GluN2D [1] (in the absence of QNZ46) came to 440 nM; on GluN1/GluN2D [1] (in the presence of 10 μM QNZ46) it was 220 nM. Also, the “time constant for agonist deactivation (τweighted)” value at GluN1/GluN2D [2] was 3810 ms.

For `CN[C@H](CC(=O)O)C(=O)O` [NMDA, N-methyl-D-aspartate, reference compound], at GluN1/GluN2D [2], the “time constant for agonist deactivation (τweighted)” value is 92 ms.
